Measured values taken from article PMC6274554, “Synthetic Strategy and Anti-Tumor Activities of Macrocyclic Scaffolds Based on 4-Hydroxyproline” (Molecules, 2016).

Experiments:
Assay type in all cases: cell-based, human
[1] = system: lung cancer cell line A549; experiment: MTT cytotoxicity assay, A549; conditions: A549 cells, 8000 cells/well, 24 h incubation with compound, absorbance 490 nm, read-out: IC50 (μmol/L) A549
From the text: (§1) A small library derived from 6a–b, 9 and 10a–c was obtained by hydrolysis of the macrocycles and condensation with amines. The anti-tumor activities for lung cancer cell line A549, breast cancer cell line MDA-MB-231 and hepatocarcinoma cell line Hep G2 of all these new compounds were screened in vitro by an MTT assay. Most of the compounds show some inhibitory activities against A549, MDA-MB-231 and Hep G2. […] In the future, further structure–activity relationship studies will be performed to determine how the substituents affected the anti-tumor activity and to design the best chemical structure in the future.
(§2) The human lung cancer cell line A549, breast cancer cell line MDA-MB-231 and hepatocarcinoma cell line Hep G2 were cultured in Dulbecco’s modified Eagle’s medium (DMEM) supplemented with antibiotics (penicillin 50 U/mL; streptomycin 50 µg/mL) and 10% FCS. The incubation was at 37 °C in a humidified atmosphere of 5% CO2 in air before experiments. Cells were first seeded at a density of 8000 cells/well in a 96-well plate for 48 hours. Solutions containing respective concentrations of compounds were added into wells and incubation continued for another 24 hours. After that, the MTT (3-(4,5-dimethylthiazol-2-yl)-2,5-diphenyltetrazolium bromide) dye stock solution (10 μL, 5 mg/mL) was added to each well. After 4 h, the supernatant was removed and DMSO (100 μL) was added to solubilize the MTT. The absorbance was measured at a wave length of 490 nm (A490nm) on an ELISA microplate reader. Results were expressed as IC50 values.

[2] = system: breast cancer cell line MDA-MB-231; experiment: MTT cytotoxicity assay, MDA-MB-231; conditions: MDA-MB-231 cells, 8000 cells/well, 24 h incubation with compound, absorbance 490 nm, read-out: IC50 (μmol/L) MDA-MB-231
From the text: as §1, §2

[3] = system: hepatocarcinoma cell line Hep G2; experiment: MTT cytotoxicity assay, Hep G2; conditions: Hep G2 cells, 8000 cells/well, 24 h incubation with compound, absorbance 490 nm, read-out: IC50 (μmol/L) Hep G2
From the text: as §1, §2

O=C(O)[C@@H]1C[C@@H]2CN1C(=O)c1cccc(c1)OCCn1cc(nn1)CO2 [Compound 22, (11R,13S)-15-Oxo-2,10-dioxa-5,6,7,14-tetraaza-tetracyclo[14.3.1.1^5,8.1^11,14]docosane-6,8(21),1(20),16,18-pentaene-13-carboxylic acid]
IC50 [1]: 32.2 µmol/L | IC50 [2]: 45.1 µmol/L | IC50 [3]: 44.2 µmol/L
